According to publication PMC4041848, “Differential Effects of Omeprazole and Lansoprazole Enantiomers on Aryl Hydrocarbon Receptor in Human Hepatocytes and Cell Lines” (PLoS ONE, 2014):
Read-outs that look alike come from different tables or passages of the source.

Key:
AZ-AHR cells = assay: MTT cytotoxicity test in AZ-AHR reporter cells; details: for cytotoxicity: AZ-AHR cells, 24 h, MTT, concentrations up to 250 µM
Method: (§1) A stably transfected gene reporter cell line AZ-AHR, derived from human hepatoma HepG2 cells transfected with a construct containing several AhR binding sites upstream of a luciferase reporter gene, was used for assessment of AhR transcriptional activity. Cells were incubated for 24 h with tested compounds and/or vehicle (DMSO; 0.1% v/v), in the presence or absence of TCDD (10 nM; AZ-AHR cells) or DEX (100 nM; AZ-GR cells). After the treatments, cells were lysed and luciferase activity was measured. In parallel, cell viability was determined by conventional MTT test.
(§2) In the first series of experiments, the cytotoxicity of tested compounds was assessed in gene reporter cell line AZ-AHR. For this purpose, the cells were incubated for 24 h with S-OME, R-OME, rac-OME, S-LAN, R-LAN and rac-LAN at concentration ranging from 100 pM to 250 µM. The vehicle was DMSO (0.1% v/v). After the treatment, a conventional MTT test was performed.
(§3) Figure 1 Effect of omeprazole and lansoprazole enantiomers on transcriptional activity of aryl hydrocarbon receptor AhR in human gene reporter cell line AZ-AHR. The cells were seeded in 96-well plates and stabilized for 16 h. Panels A and B: Cells were incubated for 24 h with S-OME, R-OME, rac-OME, S-LAN, R-LAN and rac-LAN at concentrations ranging from 10^−10 M to 10^−4 M. The vehicle was DMSO (0.1% v/v). After the treatment, MTT test was performed and absorbance was measured at 540 nm. Treatments were performed in triplicates. The data are the mean from experiments from six different passages of cells and are expressed as a percentage of viability of control cells. The values of IC50 were calculated and are indicated in a figure. Panels C - F: AZ-AHR cells were incubated for 24 h with S-OME, R-OME, rac-OME, S-LAN, R-LAN and rac-LAN at concentrations ranging from 10^−10 M to 10^−4 M in the absence (Panels C and D - agonist mode) or in the presence (Panels E and F- antagonist mode) of TCDD (5 nM). The vehicle was DMSO (0.1% v/v). After the treatments, cells were lysed and luciferase activity was measured. Treatments were performed in triplicates in five (agonist mode) or four (antagonist mode) independent cell passages. […] Data are expressed as a fold induction of luciferase activity over control cells (Panels C and D - agonist mode) or as a percentage of maximal induction attained by TCDD (Panels E and F- antagonist mode).

[1] = test system: aryl hydrocarbon receptor AhR; assay: AhR gene reporter assay, agonist mode
Method: as §1, §3
Gene reporter assays were performed in two different experimental layouts. […] In antagonist mode, cells were incubated with increasing concentrations of tested compounds in combination with model agonist (TCDD; 5 nM), and half-maximal inhibitory concentrations (IC50) were calculated. […] The efficacy was calculated at concentration of compounds of 100 µM and compared to 5 nM TCDD (Figure 1C).

[2] = test system: aryl hydrocarbon receptor AhR; assay: AhR gene reporter assay, antagonist mode (with TCDD); details: read-out: AhR antagonist IC50; AZ-AHR cells, 24 h, in the presence of TCDD (5 nM), average of four passages
Method: as §1
Figure 1 Effect of omeprazole and lansoprazole enantiomers on transcriptional activity of aryl hydrocarbon receptor AhR in human gene reporter cell line AZ-AHR. The cells were seeded in 96-well plates and stabilized for 16 h. […] After the treatment, MTT test was performed and absorbance was measured at 540 nm. […] The data are the mean from experiments from six different passages of cells and are expressed as a percentage of viability of control cells. The values of IC50 were calculated and are indicated in a figure. […] After the treatments, cells were lysed and luciferase activity was measured. […] Data are expressed as a fold induction of luciferase activity over control cells (Panels C and D - agonist mode) or as a percentage of maximal induction attained by TCDD (Panels E and F- antagonist mode). […]

CYP1A2 mRNA = CYP1A2 mRNA induction in primary human hepatocytes (qRT-PCR); details: hepatocyte culture HH52, 24 h, 100 µM
From the text: (§4) Primary human hepatocytes used in this study were obtained from two sources: (i) from multiorgan donor HH52; the use of liver cells of donor HH52 was approved by “Ethical committee at the Faculty Hospital Olomouc”,and it was in accordance with Transplantation law #285/2002 Sb; “Ethical committee at the Faculty Hospital Olomouc” waived the authors from obtaining consent from the next of kin, regarding human hepatocytes obtained from liver donor HH52. (ii) long-term human hepatocytes in monolayer Batch HEP220770 (person), Batch HEP220774 (person) were purchased from Biopredic International (Biopredic International, Rennes, France). Cells were cultured in serum-free medium. Cultures were maintained at 37°C and 5% CO2 in a humidified incubator.
Total RNA was isolated using TRI Reagent (Molecular Research Center, Cincinnati, OH, USA). cDNA was synthesized from 1000 ng of total RNA using M-MLV Reverse Transcriptase (Finnzymes, Espoo, Finland) at 42°C for 60 min in the presence of random hexamers (Takara, Shiga, Japan). qRT-PCR was carried out using LightCycler FastStart DNA MasterPLUS SYBR Green I (Roche Diagnostic Corporation, Prague, Czech Republic) on a Light Cycler 480 II apparatus (Roche Diagnostic Corporation). CYP1A1, CYP1A2 and GAPDH mRNAs were determined as described previously. Measurements were performed in triplicates. […]

CYP1A2 protein = CYP1A2 protein induction in primary human hepatocytes (western blot); details: 10 µM
From the text: as §4
Total protein extracts were prepared from cells cultured on 6-well plates. Cells were washed twice with ice-cold PBS and scraped into 1 ml of PBS. The suspension was centrifuged (4500 RPM/5 min/4°C) and the pellet was resuspended in 150 µl of ice-cold lysis buffer (150 mM NaCl; 10 mM Tris pH 7.2; 0.1% (w/v) SDS; anti-protease cocktail, 1% (v/v) Triton X-100; anti-phosphatase cocktail, 1% (v/v) sodium deoxycholate; 5 mM EDTA). […] Supernatant was collected and the protein content was determined by the Bradford reagent. […] The density of bands was measured by densitometry. […]
Figure 3 Effects of omeprazole and lansoprazole enantiomers on CYP1A1 mRNA, protein and EROD activity in primary human hepatocytes. […] RT-PCR data are the mean ± SD from triplicate measurements and are expressed as fold induction over vehicle-treated cells. […] Density of bands in western blots was quantified by densitometry and the values are indicated along with respective blots. […] Upper bar graph: An activity of 7-ethoxyresorufin- O-deethylase (EROD) was measured by fluorescent spectrophotometry with 530 nm excitation and 590 nm emission filters. […] The data are expressed as fold induction over the value from control cells. Lower bar graph: A conventional MTT test was performed and absorbance was measured at 540 nm. […] The data are expressed as percentage of viability of control cells.

[3] = test system: primary human hepatocytes; assay: MTT cytotoxicity test in primary human hepatocytes; details: 100 µM
Method: (§5) Figure 3 Effects of omeprazole and lansoprazole enantiomers on CYP1A1 mRNA, protein and EROD activity in primary human hepatocytes. Panel A and Panel B: RT-PCR analyses of CYP1A1 and CYP1A2 mRNA and western blots of CYP1A1 and CYP1A2 from two different cultures (HH52 and Hep220770) are shown. Human hepatocytes were incubated for 24 h (mRNA analysis) or 48 (protein analysis) with S-OME, R-OME, rac-OME, S-LAN, R-LAN, rac-LAN, TCDD and vehicle (DMSO; 0.1% v/v). RT-PCR data are the mean ± SD from triplicate measurements and are expressed as fold induction over vehicle-treated cells. Data were normalized to GAPDH mRNA levels. Density of bands in western blots was quantified by densitometry and the values are indicated along with respective blots. Panel C: EROD and cytotoxicity: Human hepatocytes (culture Hep220774) were treated for 24 h with S-OME, R-OME, rac-OME, S-LAN, R-LAN, rac-LAN, TCDD and vehicle (DMSO; 0.1% v/v). Upper bar graph: An activity of 7-ethoxyresorufin- O-deethylase (EROD) was measured by fluorescent spectrophotometry with 530 nm excitation and 590 nm emission filters. Treatments were performed in triplicates. The data are expressed as fold induction over the value from control cells. Lower bar graph: A conventional MTT test was performed and absorbance was measured at 540 nm. […] The data are expressed as percentage of viability of control cells. […]

[4] = MTT cytotoxicity test in AZ-AHR reporter cells; details: human
Method: as §1, §2, §3

CYP1A1 mRNA [5] = assay: CYP1A1 mRNA induction in primary human hepatocytes (qRT-PCR); details: hepatocyte culture Hep220770, 24 h, 100 µM
From the text: as §4
(§6) Total RNA was isolated using TRI Reagent (Molecular Research Center, Cincinnati, OH, USA). cDNA was synthesized from 1000 ng of total RNA using M-MLV Reverse Transcriptase (Finnzymes, Espoo, Finland) at 42°C for 60 min in the presence of random hexamers (Takara, Shiga, Japan). qRT-PCR was carried out using LightCycler FastStart DNA MasterPLUS SYBR Green I (Roche Diagnostic Corporation, Prague, Czech Republic) on a Light Cycler 480 II apparatus (Roche Diagnostic Corporation). CYP1A1, CYP1A2 and GAPDH mRNAs were determined as described previously. Measurements were performed in triplicates. Gene expression was normalized to GAPDH as a housekeeping gene.
We examined a capability of omeprazole and lansoprazole to induce CYP1A1 and CYP1A2 mRNA and protein in primary human hepatocytes, which is a more physiological and metabolically competent cell model. Human hepatocytes were treated for 24 h or 48 h with TCDD (5 nM), vehicle (DMSO; 0.1% V/V) and tested compounds.
Figure 3 Effects of omeprazole and lansoprazole enantiomers on CYP1A1 mRNA, protein and EROD activity in primary human hepatocytes. Panel A and Panel B: RT-PCR analyses of CYP1A1 and CYP1A2 mRNA and western blots of CYP1A1 and CYP1A2 from two different cultures (HH52 and Hep220770) are shown. Human hepatocytes were incubated for 24 h (mRNA analysis) or 48 (protein analysis) with S-OME, R-OME, rac-OME, S-LAN, R-LAN, rac-LAN, TCDD and vehicle (DMSO; 0.1% v/v). RT-PCR data are the mean ± SD from triplicate measurements and are expressed as fold induction over vehicle-treated cells. Data were normalized to GAPDH mRNA levels. Density of bands in western blots was quantified by densitometry and the values are indicated along with respective blots. Panel C: EROD and cytotoxicity: Human hepatocytes (culture Hep220774) were treated for 24 h with S-OME, R-OME, rac-OME, S-LAN, R-LAN, rac-LAN, TCDD and vehicle (DMSO; 0.1% v/v). Upper bar graph: An activity of 7-ethoxyresorufin- O-deethylase (EROD) was measured by fluorescent spectrophotometry with 530 nm excitation and 590 nm emission filters. Treatments were performed in triplicates. The data are expressed as fold induction over the value from control cells. Lower bar graph: A conventional MTT test was performed and absorbance was measured at 540 nm. Treatments were performed in triplicates. The data are expressed as percentage of viability of control cells.

[6] = MTT cytotoxicity test in primary human hepatocytes; details: female, human, primary human hepatocytes, culture Hep220774
Method: as §5

CYP1A1 mRNA [7] = details: HepG2, 24 h, 5 nM, vs vehicle-treated cells
Method: as §6
Treatments were performed in triplicates.

CYP1A1 protein = CYP1A1 protein induction in primary human hepatocytes (western blot); details: hepatocyte culture HH52, 48 h
From the text: Primary human hepatocytes used in this study were obtained from two sources: (i) from multiorgan donor HH52; the use of liver cells of donor HH52 was approved by “Ethical committee at the Faculty Hospital Olomouc”,and it was in accordance with Transplantation law #285/2002 Sb; “Ethical committee at the Faculty Hospital Olomouc” waived the authors from obtaining consent from the next of kin, regarding human hepatocytes obtained from liver donor HH52. (ii) long-term human hepatocytes in monolayer Batch HEP220770 (person), Batch HEP220774 (person) were purchased from Biopredic International (Biopredic International, Rennes, France). Cells were cultured in serum-free medium. […]
Total protein extracts were prepared from cells cultured on 6-well plates. […] Supernatant was collected and the protein content was determined by the Bradford reagent. […] The density of bands was measured by densitometry. […]
Figure 3 Effects of omeprazole and lansoprazole enantiomers on CYP1A1 mRNA, protein and EROD activity in primary human hepatocytes. […] RT-PCR data are the mean ± SD from triplicate measurements and are expressed as fold induction over vehicle-treated cells. […] Density of bands in western blots was quantified by densitometry and the values are indicated along with respective blots. […] The data are expressed as fold induction over the value from control cells. […]

[8] = test system: CYP1A1/1A2 enzymes (EROD); assay: EROD activity in primary human hepatocytes; details: hepatocyte culture Hep220774, 24 h, 5 nM
Method: as §5

[9] = test system: CYP1A1 catalytic activity (EROD); assay: EROD catalytic activity in HepG2 cells; details: HepG2, 24 h, 5 nM
[10] = AZ-AHR cells, 24 h, compared to 5 nM TCDD, calculated at 100 µM compound (stated for omeprazole)

COc1ccc2nc([S@+]([O-])Cc3ncc(C)c(OC)c3C)[nH]c2c1 [R-OME, R-omeprazole]
cytotoxicity (AZ-AHR cells): not cytotoxic | AhR agonist efficacy [1]: 48.6±26.8% | EC50 ([1]; read-out: AhR agonist EC50, AZ-AHR cells, 24 h, luciferase, average of five passages): 35.1 ± 3.7 µM | IC50 [2]: 54.8 ± 25.9 µM | CYP1A2 mRNA induction (CYP1A2 mRNA): 71 % of TCDD induction

Cc1c(OCC(F)(F)F)ccnc1C[S@+]([O-])c1nc2ccccc2[nH]1 [S-LAN, S-lansoprazole]
IC50 (AZ-AHR cells): 169 µM | EC50 [1]: 1.9 ± 0.3 µM | AhR agonist efficacy [1, 10]: 26.3±8.7% | CYP1A2 protein induction (CYP1A2 protein; hepatocyte culture HH52, 48 h): strong induction | viability of the cells [3]: 64%

COc1ccc2nc([S@@+]([O-])Cc3ncc(C)c(OC)c3C)[nH]c2c1 [S-OME, S-omeprazole]
IC50 at 24 h [4]: > 250 µM | cytotoxicity (AZ-AHR cells): not cytotoxic | AhR agonist efficacy [1, 10]: 44.8±11.8% | EC50 at 24 h ([1]; human): 22.9 ± 7.9 µM | CYP1A1 mRNA induction (CYP1A1 mRNA [5]): 736 fold | CYP1A2 protein induction (CYP1A2 protein; both hepatocyte cultures (HH52, Hep220770), 48 h): strongly induced | viability at 24 h, 250 µM [6]: 60%

Clc1cc2c(cc1Cl)Oc1cc(Cl)c(Cl)cc1O2 [TCDD, 2,3,7,8-tetrachlorodibenzo-p-dioxin]
induction of AhR-dependent luciferase activity, average ([1]; 5 nM TCDD, five consecutive passages, vs vehicle-treated cells): 354 fold | CYP1A1 mRNA induction (CYP1A1 mRNA [7]): approximately 230 fold | CYP1A1 protein induction (CYP1A1 protein): drastic increase | induction of EROD activity [8]: approximately 15 fold | EROD activity, average increase [9]: 22-23 fold
